What was measured:
[1] = tested on: MCF7 cells; test: Anti-proliferation (viability) of MCF7 cells (Table 7, FIG. 2B); format: cell-based; details: Homo sapiens, MCF7, MCF7 cells, 3-6 days, 10-point serial dilution; read-out: GI IC50 in MCF-7
[2] = target: CDK4 (Homo sapiens, UniProt P11802+Q16531); test: HiBiT detection of HiBiT-tagged CDK4 protein level in MCF7 cells, 16 hours (Table 8); format: cell-based; parameters: expressed in transfected cells; host or cells: MCF7; details: MCF7 cells stably expressing HiBiT tagged target proteins; for activity at 0.01 µM: 10 nM, read-out: % CDK4 Relative Level (10 nM); for activity at 0.1 µM: 100 nM, read-out: % CDK4 Relative Level (100 nM)
Experimental: HiBiT detection system quantitatively measures total amounts of HiBiT-tagged proteins using a luminescent based method. MCF7 cells stably expressing HiBiT tagged target proteins were treated with heterobifunctional compounds at indicated concentrations for 16 hours, then lysed with Nano-Glo HiBiT Lytic detection reagents.

CDK4, sequence (P11802 whole entry): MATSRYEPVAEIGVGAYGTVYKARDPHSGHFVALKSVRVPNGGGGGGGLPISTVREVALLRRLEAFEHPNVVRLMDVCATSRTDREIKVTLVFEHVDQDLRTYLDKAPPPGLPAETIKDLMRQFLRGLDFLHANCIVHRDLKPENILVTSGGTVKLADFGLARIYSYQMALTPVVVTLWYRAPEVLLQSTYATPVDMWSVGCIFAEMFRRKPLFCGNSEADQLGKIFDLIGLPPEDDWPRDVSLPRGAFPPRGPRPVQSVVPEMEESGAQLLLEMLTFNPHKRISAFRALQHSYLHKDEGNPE
CDK4, sequence (P24385 whole entry partner): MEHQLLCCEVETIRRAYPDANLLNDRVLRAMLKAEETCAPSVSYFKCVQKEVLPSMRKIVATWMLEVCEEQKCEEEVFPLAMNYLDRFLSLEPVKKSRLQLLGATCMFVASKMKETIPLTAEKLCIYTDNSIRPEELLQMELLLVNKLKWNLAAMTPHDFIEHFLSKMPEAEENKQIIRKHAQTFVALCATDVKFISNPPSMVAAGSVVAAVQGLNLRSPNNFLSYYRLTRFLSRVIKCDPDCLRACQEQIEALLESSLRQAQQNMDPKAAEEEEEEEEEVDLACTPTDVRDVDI
CDK4, sequence (Q16531 2-1140 limits assumed): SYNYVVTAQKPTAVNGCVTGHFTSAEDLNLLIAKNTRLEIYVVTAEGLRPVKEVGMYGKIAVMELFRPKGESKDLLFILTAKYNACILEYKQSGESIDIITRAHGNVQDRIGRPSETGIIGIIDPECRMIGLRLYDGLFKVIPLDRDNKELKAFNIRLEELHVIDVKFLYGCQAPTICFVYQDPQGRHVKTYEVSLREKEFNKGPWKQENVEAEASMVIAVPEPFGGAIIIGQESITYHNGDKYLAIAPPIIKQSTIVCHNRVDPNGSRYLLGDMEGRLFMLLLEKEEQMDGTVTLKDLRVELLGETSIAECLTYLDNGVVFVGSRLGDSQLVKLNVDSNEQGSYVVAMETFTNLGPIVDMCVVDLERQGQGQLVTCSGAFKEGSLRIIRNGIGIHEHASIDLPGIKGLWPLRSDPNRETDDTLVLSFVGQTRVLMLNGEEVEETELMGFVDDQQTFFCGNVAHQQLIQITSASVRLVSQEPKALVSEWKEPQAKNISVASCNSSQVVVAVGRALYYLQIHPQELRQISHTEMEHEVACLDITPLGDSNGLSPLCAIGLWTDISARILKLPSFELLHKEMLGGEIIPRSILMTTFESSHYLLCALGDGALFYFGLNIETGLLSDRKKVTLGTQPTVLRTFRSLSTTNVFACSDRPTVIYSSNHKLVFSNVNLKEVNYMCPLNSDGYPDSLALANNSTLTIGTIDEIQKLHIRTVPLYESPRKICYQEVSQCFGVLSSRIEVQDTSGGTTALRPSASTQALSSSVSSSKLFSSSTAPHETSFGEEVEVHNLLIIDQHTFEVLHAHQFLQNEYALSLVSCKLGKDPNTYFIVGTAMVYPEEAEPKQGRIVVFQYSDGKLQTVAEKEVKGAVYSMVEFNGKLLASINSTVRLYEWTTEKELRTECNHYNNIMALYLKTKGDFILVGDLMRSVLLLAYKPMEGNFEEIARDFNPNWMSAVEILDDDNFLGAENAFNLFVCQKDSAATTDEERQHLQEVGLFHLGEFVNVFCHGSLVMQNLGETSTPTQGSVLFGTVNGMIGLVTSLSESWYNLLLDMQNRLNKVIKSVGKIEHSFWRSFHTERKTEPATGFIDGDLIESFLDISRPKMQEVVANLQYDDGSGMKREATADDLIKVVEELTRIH

IC50 [1] [nM] | activity at 0.01 µM [2] [%] | activity at 0.1 µM [2] [%] | Structure (SMILES)
> 100 | 55 to 85 | 55 to 85 | CNc1ccc(C(=O)Nc2ccc(N(C)C)nn2)c(NCCCCCCC(=O)N2CCN(c3ccc(Nc4ncc5cc(C(=O)N(C)C)n(C6CCCC6)c5n4)nc3)CC2)n1 [CPD-620, 7-cyclopentyl-2-((5-(4-(7-((3-((6-(dimethylamino)pyridazin-3-yl)carbamoyl)-6-(methylamino)pyridin-2-yl)amino)heptanoyl)piperazin-1-yl)pyridin-2-yl)amino)-N,N-dimethyl-7H-pyrrolo[2,3-d]pyrimidine-6-carboxamide]
> 100 | 55 to 85 | 55 to 85 | CNc1ccc(C(=O)Nc2ccc(N(C)C)nn2)c(NCCCNC(=O)CN2CCN(c3ccc(Nc4ncc5cc(C(=O)N(C)C)n(C6CCCC6)c5n4)nc3)CC2)n1 [CPD-625, 7-cyclopentyl-2-((5-(4-(2-((3-((3-((6-(dimethylamino)pyridazin-3-yl)carbamoyl)-6-(methylamino)pyridin-2-yl)amino)propyl)amino)-2-oxoethyl)piperazin-1-yl)pyridin-2-yl)amino)-N,N-dimethyl-7H-pyrrolo[2,3-d]pyrimidine-6-carboxamide]
> 100 | 55 to 85 | 55 to 85 | CNc1ccc(C(=O)Nc2ccc(N(C)C)nn2)c(NCCCCNC(=O)CN2CCN(c3ccc(Nc4ncc5cc(C(=O)N(C)C)n(C6CCCC6)c5n4)nc3)CC2)n1 [CPD-626, 7-cyclopentyl-2-((5-(4-(2-((4-((3-((6-(dimethylamino)pyridazin-3-yl)carbamoyl)-6-(methylamino)pyridin-2-yl)amino)butyl)amino)-2-oxoethyl)piperazin-1-yl)pyridin-2-yl)amino)-N,N-dimethyl-7H-pyrrolo[2,3-d]pyrimidine-6-carboxamide]
> 100 | 55 to 85 | 55 to 85 | CNc1ccc(C(=O)Nc2ccc(N(C)C)nn2)c(NCCCCCNC(=O)CN2CCN(c3ccc(Nc4ncc5cc(C(=O)N(C)C)n(C6CCCC6)c5n4)nc3)CC2)n1 [CPD-627, 7-cyclopentyl-2-((5-(4-(2-((5-((3-((6-(dimethylamino)pyridazin-3-yl)carbamoyl)-6-(methylamino)pyridin-2-yl)amino)pentyl)amino)-2-oxoethyl)piperazin-1-yl)pyridin-2-yl)amino)-N,N-dimethyl-7H-pyrrolo[2,3-d]pyrimidine-6-carboxamide]
> 100 | 55 to 85 | 55 to 85 | CNc1ccc(C(=O)Nc2ccc(N(C)C)nn2)c(NCCCCCCNC(=O)CN2CCN(c3ccc(Nc4ncc5cc(C(=O)N(C)C)n(C6CCCC6)c5n4)nc3)CC2)n1 [CPD-628, 7-cyclopentyl-2-((5-(4-(2-((6-((3-((6-(dimethylamino)pyridazin-3-yl)carbamoyl)-6-(methylamino)pyridin-2-yl)amino)hexyl)amino)-2-oxoethyl)piperazin-1-yl)pyridin-2-yl)amino)-N,N-dimethyl-7H-pyrrolo[2,3-d]pyrimidine-6-carboxamide]

The next lines start with the compound.

Structure (SMILES) | IC50 [1] [nM] | activity at 0.01 µM [2] [%] | activity at 0.1 µM [2] [%]
CNc1ccc(C(=O)Nc2ccc(N(C)C)nn2)c(NCCCCCC(=O)N2CCN(Cc3ccc(Nc4ncc(F)c(-c5cc(F)c6nc(C)n(C(C)C)c6c5)n4)nc3)CC2)n1 [CPD-603, N-(6-(dimethylamino)pyridazin-3-yl)-2-((6-(4-((6-((5-fluoro-4-(4-fluoro-1-isopropyl-2-methyl-1H-benzo[d]imidazol-6-yl)pyrimidin-2-yl)amino)pyridin-3-yl)methyl)piperazin-1-yl)-6-oxohexyl)amino)-6-(methylamino)nicotinamide] | > 100 | 55 to 85 | 55 to 85
CNc1ccc(C(=O)Nc2ccc(N(C)C)nn2)c(NCCOCCOCCC(=O)N2CCN(Cc3ccc(Nc4ncc(F)c(-c5cc(F)c6nc(C)n(C(C)C)c6c5)n4)nc3)CC2)n1 [CPD-607, N-(6-(dimethylamino)pyridazin-3-yl)-2-((2-(2-(3-(4-((6-((5-fluoro-4-(4-fluoro-1-isopropyl-2-methyl-1H-benzo[d]imidazol-6-yl)pyrimidin-2-yl)amino)pyridin-3-yl)methyl)piperazin-1-yl)-3-oxopropoxy)ethoxy)ethyl)amino)-6-(methylamino)nicotinamide] | > 100 | > 85 | > 85
CNc1ccc(C(=O)Nc2ccc(N(C)C)nn2)c(NCCNC(=O)CN2CCN(Cc3ccc(Nc4ncc(F)c(-c5cc(F)c6nc(C)n(C(C)C)c6c5)n4)nc3)CC2)n1 [CPD-608, N-(6-(dimethylamino)pyridazin-3-yl)-2-((2-(2-(4-((6-((5-fluoro-4-(4-fluoro-1-isopropyl-2-methyl-1H-benzo[d]imidazol-6-yl)pyrimidin-2-yl)amino)pyridin-3-yl)methyl)piperazin-1-yl)acetamido)ethyl)amino)-6-(methylamino)nicotinamide] | > 100 | > 85 | 55 to 85
CNc1ccc(C(=O)Nc2ccc(N(C)C)nn2)c(NCCCC(=O)N2CCN(c3ccc(Nc4ncc5cc(C(=O)N(C)C)n(C6CCCC6)c5n4)nc3)CC2)n1 [CPD-617, 7-cyclopentyl-2-((5-(4-(4-((3-((6-(dimethylamino)pyridazin-3-yl)carbamoyl)-6-(methylamino)pyridin-2-yl)amino)butanoyl)piperazin-1-yl)pyridin-2-yl)amino)-N,N-dimethyl-7H-pyrrolo[2,3-d]pyrimidine-6-carboxamide] | > 100 | > 85 | > 85
CNc1ccc(C(=O)Nc2ccc(N(C)C)nn2)c(NCCCCC(=O)N2CCN(c3ccc(Nc4ncc5cc(C(=O)N(C)C)n(C6CCCC6)c5n4)nc3)CC2)n1 [CPD-618, 7-cyclopentyl-2-((5-(4-(5-((3-((6-(dimethylamino)pyridazin-3-yl)carbamoyl)-6-(methylamino)pyridin-2-yl)amino)pentanoyl)piperazin-1-yl)pyridin-2-yl)amino)-N,N-dimethyl-7H-pyrrolo[2,3-d]pyrimidine-6-carboxamide] | > 100 | > 85 | 55 to 85
CNc1ccc(C(=O)Nc2ccc(N(C)C)nn2)c(NCCCCCCCC(=O)N2CCN(c3ccc(Nc4ncc5cc(C(=O)N(C)C)n(C6CCCC6)c5n4)nc3)CC2)n1 [CPD-621, 7-cyclopentyl-2-((5-(4-(8-((3-((6-(dimethylamino)pyridazin-3-yl)carbamoyl)-6-(methylamino)pyridin-2-yl)amino)octanoyl)piperazin-1-yl)pyridin-2-yl)amino)-N,N-dimethyl-7H-pyrrolo[2,3-d]pyrimidine-6-carboxamide] | > 100 | 55 to 85 | 55 to 85
CNc1ccc(C(=O)Nc2ccc(N(C)C)nn2)c(NCCOCCC(=O)N2CCN(c3ccc(Nc4ncc5cc(C(=O)N(C)C)n(C6CCCC6)c5n4)nc3)CC2)n1 [CPD-622, 7-cyclopentyl-2-((5-(4-(3-(2-((3-((6-(dimethylamino)pyridazin-3-yl)carbamoyl)-6-(methylamino)pyridin-2-yl)amino)ethoxy)propanoyl)piperazin-1-yl)pyridin-2-yl)amino)-N,N-dimethyl-7H-pyrrolo[2,3-d]pyrimidine-6-carboxamide] | > 100 | 55 to 85 | 55 to 85

Source: US20260297081A1, “COMPOUNDS AND METHODS OF TREATING CANCERS” (Cullgen Inc., priority 2023, published 2026)
